Reference: patent publication US7824710B2, “Crystalline and stable form of andolast” (Rottapharm S.p.A., priority 2006, dated 2010)
Several values for one entry are separate records, joined by “and”; a condition that tells them apart may be missing. Identical values can stand only once. Like-named read-outs stand apart in the source and are kept apart here.

Key:
Type in all cases: physicochemical
[1] = Solubility of the disodium salt in water; conditions: 25° C.
Method: N-4-(1H-tetrazol-5-yl)phenyl-4-(1H-tetrazol-5-yl)benzamide is prepared as described in WO 90/09989, Example 13 (herein incorporated by reference). The disodium salt of N-4-(1H-tetrazol-5-yl)phenyl-4-(1H-tetrazol-5-yl)benzamide can be prepared directly as the pentahydrate or precipitated as an undefined mixture of hydrates and then converted into the pentahydrate (Form A), by re-crystallization or by phase equilibration (slurry conversion: slurry in an appropriate solvent mixture). In both cases the disodium salt is obtained by adding to a suspension in water of N-4-(1H-tetrazol-5-yl)phenyl-4-(1H-tetrazol-5-yl)benzamide, an amount of aqueous sodium hydroxide or sodium alkoxide, ranging from 2.0 to 2.2 equivalents, preferably 2.1 equivalents, being sodium methoxide, sodium ethoxide and sodium isopropoxide the preferred alkoxide, at a temperature ranging from +15° to +40° C. […] The resulting mixture is stirred until the solid is completely dissolved, then the pH of the solution is carefully adjusted to 6.5-7.5, by addition of diluted hydrochloric acid, filtered and concentrated under vacuum, at a temperature not exceeding +60° C. […]

[2] = Moisture sorption/desorption by Differential Vapor Sorption (DVS); conditions: for R.H. at which substantial desorption (loss of water) starts: DVS scanning mode, 5% ΔR.H. per hour
Method: The moisture sorption/desorption behavior was analyzed for different solids using Differential Vapor Sorption (DVS) technique. In FIG. 8 is reported as an example the sorption/desorption isotherms for batch B/6272. […] Though the different batches were not characterized by exactly matching DVS diagrams all reached the about 20% water content after an appropriate time.
This surprising stability to moisture of Form A is also confirmed by DVS experiments. In the scanning mode, water is only lost when about 0% R.H. is reached. Moisture sorption/desorption behavior for the pentahydrate is reported in Example 9 (FIG. 14).
Water vapor sorption/desorption was analyzed using Surface Measurement System Ltd. DVS-1 apparatus. The sample was allowed to equilibrate at 50% R.H. before starting a predefinite humidity program, scanning with 5% ΔR.H. hour^−1 and with several “isohumid” equilibration periods (see FIG. 14 for details). The water content of the sample used for DVS was calculated on the basis of KF analysis, while crystalline form was assessed by FT-Raman spectroscopy. The DVS plots of water content vs. R.H. and R.H. vs. time are reported for Andolast disodium pentahydrate (Form A) in FIG. 14. It can be seen from the DVS plot that substantial desorption starts only at almost 0% RH.

[3] = Aerosol performance of dry powder formulation for inhalation by MSLI (Multi Step Liquid Impinger); conditions: dose 8 mg
Description: As discussed below Andolast disodium salt as Form A can be formulated according to several pharmaceutical compositions.

[4] = Storage of open samples in humidity controlled chamber (stability to moisture, Example 8); conditions: 9 days; for FT-Raman / KF (water content) / XRPD: open sample
Description: The list of improved physical and mechanical characteristics reported below is intended at documenting representative examples of advantages Form A is endowed with over the undefined hydrated forms obtained according to uncontrolled conditions.
samples of Form A were stored, as open samples, in an humidity controlled chamber for 9 days, in Table 5 water content (KF), XRPD and FT-Raman spectra at the end-point of the experiment are reported vs. R.H. […]

[5] = ICH accelerated stability testing
[6] = Stability to temperature and mechanical mill (Example 10); conditions: open sample 1 day at 50° C., then milled 10 min at 24 s−1 in ball swing mill
Method: about 1 g of Andolast disodium salt Form A was stored, as open sample, for 1 day at 50° C. The product was then milled for 10 min. at 24 s−1 in a ball swing mill. A sample was then analyzed by KF and FT-Raman spectroscopy.

[7] = Stability of crystalline form to jet mill micronization (Example 11); conditions: MC Jet Mill, nitrogen, 12 bar, about 10 g/30 sec, without cooling
Description: In Example 11 it is reported how Form A can be successfully micronized using conditions identical to the ones used for the micronization of the batch B/7081 (see FIGS. 7a and 7b for XRPD spectra) without altering XRPD and spectroscopic characteristics (Ft-Raman and FT-IR), thus proving Form A stability and crystalline form consistency also after the micronization step affording the suitable drug substance for preparing dry powder and pressurized HFA aerosols formulations for inhalation.
Andolast disodium form A is micronized, without cooling, using an MC Jet Mill apparatus, and nitrogen as carrier gas, at 12 bar and with a feeding rate of about 10 g/30 sec.

[8] = active ingredient/excipient 1:1, Mean of 6 MSLI runs
[9] = active ingredient/excipient 1:1, capsule inhaler, single MSLI runs 1-6
[10] = active ingredient/excipient 1:1, Mean of 6 MSLI runs, listed as Form A obtained at Example 3
[11] = active ingredient/excipient 1:1, capsule inhaler, single MSLI runs 1-6, listed as Form A obtained at Example 3

O=C(Nc1ccc(-c2nn[n-]n2)cc1)c1ccc(-c2nn[n-]n2)cc1.[Na+].[Na+] [Andolast disodium salt, N-4-(1H-tetrazol-5-yl)phenyl-4-(1H-tetrazol-5-yl)benzamide disodium salt] gave a solubility [1] of ~150 mg/mL.
For O=C(Nc1ccc(-c2nn[n-]n2)cc1)c1ccc(-c2nn[n-]n2)cc1.[Na+].[Na+] [B/6272, reference compound], the “hygroscopic character of the solid” value [2] was “strongly hygroscopic” and the “water content at plateau of moisture sorption” value ([2]; DVS, continuous sorption of moisture) was “about 20%”.
In the case of O=C(Nc1ccc(-c2nn[n-]n2)cc1)c1ccc(-c2nn[n-]n2)cc1.[Na+].[Na+] [B/7080, reference compound], the “DD (Delivered Dose)” value [3, 8] is reported as 6.63 mg, the “FPD (Fine Particle Dose)” value [3, 8] is reported as 1.12 mg and the “FPF (Fine Particle Fraction)” value [3, 8] is reported as 17%. The “MD (Metered Dose)” value [3, 8] was 7.55 mg, the MMAD [3, 8] was 5.2 μm and the “DD (Delivered Dose)” value [3, 9] was 6.66 mg and 5.96 mg and 6.77 mg and 7.01 mg and 6.57 mg and 6.81 mg. For the same compound, the “FPD (Fine Particle Dose)” value [3, 9] was 0.96 mg and 0.99 mg and 1.21 mg and 1.01 mg and 1.23 mg and 1.30 mg, the “MD (Metered Dose)” value [3, 9] was 7.60 mg and 7.29 mg and 7.61 mg and 7.85 mg and 7.65 mg and the MMAD [3, 9] was 5.3 μm and 5.2 μm and 5.1 μm and 5.4 μm.
In the case of O=C(Nc1ccc(-c2nn[n-]n2)cc1)c1ccc(-c2nn[n-]n2)cc1.[Na+].[Na+] [Example 3], the “DD (Delivered Dose)” value [3, 10] is reported as 7.46 mg, the “FPD (Fine Particle Dose)” value [3, 10] is reported as 2.16 mg and the “FPF (Fine Particle Fraction)” value [3, 10] is reported as 29%. For the same compound, the “MD (Metered Dose)” value [3, 10] was 8.48 mg, the MMAD [3, 10] was 3.8 μm and the “DD (Delivered Dose)” value [3, 11] was 7.25 mg and 7.54 mg and 7.47 mg and 7.33 mg and 7.71 mg and 7.43 mg. For the same compound, the “FPD (Fine Particle Dose)” value [3, 11] was 1.96 mg and 2.07 mg and 2.58 mg and 1.97 mg and 2.18 mg and 2.20 mg, the “FPF (Fine Particle Fraction)” value [3, 11] was 27% and 35% and 28% and 30% and the “MD (Metered Dose)” value [3, 11] was 8.31 mg and 8.67 mg and 8.46 mg and 8.33 mg and 8.49 mg and 8.60 mg. For the same compound, the MMAD [3, 11] was 3.8 μm and 4.0 μm and 3.6 μm and 3.9 μm.
With O=C(Nc1ccc(-c2nn[n-]n2)cc1)c1ccc(-c2nn[n-]n2)cc1.[Na+].[Na+] [Form A, N-4-(1H-tetrazol-5-yl)phenyl-4-(1H-tetra-zol-5yl)benzamide disodium salt] the “Stability to moisture (water content and solid form)” value ([4]; R.H. from 12% to 85%, room temperature) was “did not alter the water content of any sample, neither the solid form”, the FT-Raman ([4]; RH 12%) was “Complies with Form A” and the “KF (water content)” value ([4]; RH 12%) was 19.26%. The XRPD ([4]; RH 12%) was “Complies with Form A”, the FT-Raman ([4]; RH 22%) was “Complies with Form A” and the “KF (water content)” value ([4]; RH 22%) was 19.36%. The XRPD ([4]; RH 22%) was “Complies with Form A”, the FT-Raman ([4]; RH 32%) was “Complies with Form A” and the “KF (water content)” value ([4]; RH 32%) was 19.34%. For the same compound, the XRPD ([4]; RH 32%) was “Complies with Form A”, the FT-Raman ([4]; RH 53%) was “Complies with Form A” and the “KF (water content)” value ([4]; RH 53%) was 19.35%. For the same compound, the XRPD ([4]; RH 53%) was “Complies with Form A”, the FT-Raman ([4]; RH 65%) was “Complies with Form A” and the “KF (water content)” value ([4]; RH 65%) was 19.25%. For the same compound, the XRPD ([4]; RH 65%) was “Complies with Form A”, the FT-Raman ([4]; RH 75%) was “Complies with Form A” and the “KF (water content)” value ([4]; RH 75%) was 19.22%. The XRPD ([4]; RH 75%) was “Complies with Form A”, the FT-Raman ([4]; RH 85%) was “Complies with Form A” and the “KF (water content)” value ([4]; RH 85%) was 19.43%. For the same compound, the XRPD ([4]; RH 85%) was “Complies with Form A”, the “stability (physical form and chemical stability)” value [5] was “confirmed its stability” and the “KF (water content)” value [6] was 19.53%. For the same compound, the “crystalline change by Raman spectra” value [6] was “no crystalline change occurred”, the “R.H. at which substantial desorption (loss of water) starts” value ([2]; disodium salt) was “about 0 % RH” and the “R.H. at which substantial desorption (loss of water) starts” value ([2]; listed as Andolast disodium pentahydrate (Form A), disodium salt) was ~0 % RH. For the same compound, the “hygroscopic character of the solid” value ([2]; listed as Andolast disodium Form A, disodium salt) was “not hygroscopic” and the “changes in XRPD, FT-IR and FT-Raman versus not-micronized starting material” value [7] was “no changes were observed”.
